Test results published in ChEMBL document CHEMBL1268988, “An in situ oxidation strategy towards overcoming hERG affinity” (Bioorg Med Chem Lett, 2010).
pIC50: −log10 of the molar value.

Assays:
[1] = Inhibition of HIV1 gp160 by cell-cell fusion inhibition assay; parameters: species or system Human immunodeficiency virus 1
[2] = Permeability from apical to basolateral side of human Caco-2 cells at 5 uM; format: ADME, cell-based; details: read-out: permeability
[3] = biological target: T1, Voltage-gated inwardly rectifying potassium channel KCNH2 (Homo sapiens, UniProt Q12809); test: Inhibition of human ERG at 10 uM
T1 sequence (Q12809 whole entry): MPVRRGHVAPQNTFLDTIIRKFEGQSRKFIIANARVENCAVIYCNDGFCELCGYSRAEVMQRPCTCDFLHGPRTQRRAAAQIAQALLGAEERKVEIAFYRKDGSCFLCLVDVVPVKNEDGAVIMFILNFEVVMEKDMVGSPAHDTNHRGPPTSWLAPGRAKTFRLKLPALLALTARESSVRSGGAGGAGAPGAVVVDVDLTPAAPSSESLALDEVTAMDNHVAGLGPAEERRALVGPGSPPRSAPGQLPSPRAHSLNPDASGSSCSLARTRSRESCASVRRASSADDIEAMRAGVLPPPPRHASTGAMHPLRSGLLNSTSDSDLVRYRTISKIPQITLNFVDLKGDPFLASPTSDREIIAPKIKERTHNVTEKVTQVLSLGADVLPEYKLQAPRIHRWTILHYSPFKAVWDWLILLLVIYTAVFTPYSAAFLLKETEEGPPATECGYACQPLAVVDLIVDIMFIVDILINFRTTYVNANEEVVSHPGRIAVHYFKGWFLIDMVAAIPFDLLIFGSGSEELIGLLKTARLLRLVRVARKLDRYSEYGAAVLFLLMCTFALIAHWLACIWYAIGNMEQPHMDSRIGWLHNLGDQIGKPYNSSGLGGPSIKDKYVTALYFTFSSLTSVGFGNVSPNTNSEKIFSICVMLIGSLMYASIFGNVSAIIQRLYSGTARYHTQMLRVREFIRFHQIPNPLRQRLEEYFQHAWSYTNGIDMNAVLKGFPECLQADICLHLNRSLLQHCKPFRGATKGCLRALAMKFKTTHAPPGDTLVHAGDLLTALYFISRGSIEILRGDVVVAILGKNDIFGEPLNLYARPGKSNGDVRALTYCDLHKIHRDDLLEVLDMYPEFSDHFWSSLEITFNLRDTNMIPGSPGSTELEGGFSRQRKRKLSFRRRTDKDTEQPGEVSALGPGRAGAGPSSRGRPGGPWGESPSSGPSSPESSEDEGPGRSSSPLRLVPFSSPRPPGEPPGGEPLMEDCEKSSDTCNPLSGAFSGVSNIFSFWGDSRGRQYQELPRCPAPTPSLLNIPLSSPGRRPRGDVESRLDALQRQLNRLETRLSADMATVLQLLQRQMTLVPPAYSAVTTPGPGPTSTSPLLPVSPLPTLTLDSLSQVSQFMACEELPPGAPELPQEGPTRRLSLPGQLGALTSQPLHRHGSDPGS

[4] = Permeability from apical to basolateral side in human Caco-2 cells at 5 uM; format: ADME, cell-based; details: read-out: permeability
[5] = Metabolic stability in human liver microsomes assessed as intrinsic clearance at 1 uM; format: ADME, Microsome
[6] = Membrane permeability across dog RRCK at 2 uM; format: ADME, cell-based, Canis lupus familiaris, MDCKII-LE; details: MDCK, read-out: permeability
[7] = Lipophilicity, log D of the compound; format: physicochemical; details: octanol/water
[8] = Absorption in rat at 3 mg/kg, po; format: ADME, organism-based; parameters: dose 3 mg/kg, route oral; details: in vivo, read-out: Activity
[9] = biological target: T1, Voltage-gated inwardly rectifying potassium channel KCNH2; test: Inhibition of human ERG
[10] = Clearance in rat at 1 mg/kg, iv; format: ADME, organism-based; parameters: dose 1 mg/kg, route intravenous; details: in vivo
[11] = system: Rattus norvegicus; test: Unbound clearance in rat at 1 mg/kg, iv; format: ADME, organism-based; parameters: dose 1 mg/kg, route intravenous; details: in vivo
[12] = Volume of distribution in rat at 1 mg/kg, iv; format: ADME, organism-based; parameters: dose 1 mg/kg, route intravenous; details: in vivo
[13] = Terminal half life in rat at 1 mg/kg, iv; format: ADME, organism-based; parameters: dose 1 mg/kg, route intravenous; details: in vivo, read-out: beta t1/2 (converted)
[14] = Oral bioavailability in rat at 3 mg/kg, po; format: ADME, organism-based; details: in vivo
[15] = AUC in rat at 1 mg/kg, iv; format: ADME, organism-based; parameters: dose 1 mg/kg, route intravenous; details: plasma
[16] = AUC in rat at 3 mg/kg, po; format: ADME, organism-based; parameters: dose 3 mg/kg, route oral; details: plasma
[17] = system: Rattus norvegicus; test: fAUC in rat at 1 mg/kg, iv; format: ADME, organism-based; parameters: dose 1 mg/kg, route intravenous; details: in vivo
[18] = system: Rattus norvegicus; test: fAUC in rat at 3 mg/kg, po; format: ADME, organism-based; parameters: dose 3 mg/kg, route oral; details: in vivo
[19] = Metabolic stability in rat liver microsomes assessed as intrinsic clearance; format: ADME, Microsome
[20] = system: Rattus norvegicus; test: Unbound volume of distribution in rat at 1 mg/kg, iv; format: ADME, organism-based; parameters: dose 1 mg/kg, route intravenous; details: in vivo
[21] = Clearance in rat at 1 mg/kg, iv and 2 mg/kg, po; format: ADME, organism-based; details: in vivo
[22] = Volume of distribution in rat at 1 mg/kg, iv and 2 mg/kg, po; format: ADME, organism-based; details: in vivo
[23] = Half life in rat at 1 mg/kg, iv and 2 mg/kg, po; format: ADME, organism-based; details: in vivo
[24] = Oral bioavailability in rat at 1 mg/kg, iv and 2 mg/kg, po; format: ADME, organism-based; details: in vivo

SMILES	pIC50 [1]	inhibition (INH) [3]	microsomal CLint at 1 µM [5]	Papp at 2 µM [6]	also measured
Cc1nc2ccccc2n1C1C[C@H]2CC[C@@H](C1)N2CC[C@H](NC(=O)c1ccc(S(C)(=O)=O)cc1)c1cccc(F)c1 (stereo not given in full)	7.40				
Cc1nc2ccc(F)cc2n1C1C[C@H]2CC[C@@H](C1)N2CCC(NC(=O)C1CC[S+]([O-])CC1)c1cccc(F)c1 (stereo not given in full)	11.00	Not Active			Papp A→B at 5 µM [2]: 2 ×10⁻⁶ cm/s; Papp A→B at 5 µM [4]: 18 ×10⁻⁶ cm/s
Cc1nc2cc(F)ccc2n1C1C[C@H]2CC[C@@H](C1)N2CCC(NC(=O)C1CC[S+]([O-])CC1)c1cccc(F)c1 (stereo not given in full)	9.40	Not Active	93 µL/min/mg	2 ×10⁻⁶ cm/s	
CCc1nc2ccccc2n1C1C[C@H]2CC[C@@H](C1)N2CCC(NC(=O)C1CC[S+]([O-])CC1)c1cccc(F)c1 (stereo not given in full)	10.30	Not Active	89 µL/min/mg	2 ×10⁻⁶ cm/s	
Cc1nc2ccc(F)cc2n1C1C[C@H]2CC[C@@H](C1)N2CC[C@H](NC(=O)C1CCS(=O)(=O)CC1)c1cccc(F)c1 (stereo not given in full)	11.00		10 µL/min/mg	2 ×10⁻⁶ cm/s	Papp A→B at 5 µM [2]: 5 ×10⁻⁶ cm/s; logD [7]: 2.9; Papp A→B at 5 µM [4]: 31 ×10⁻⁶ cm/s; Fa [8]: 3%
Cc1nc2cc(F)ccc2n1C1C[C@H]2CC[C@@H](C1)N2CC[C@H](NC(=O)C1CCS(=O)(=O)CC1)c1cccc(F)c1 (stereo not given in full)	10.52	Not Active	14 µL/min/mg	2 ×10⁻⁶ cm/s	Papp A→B at 5 µM [2]: 3 ×10⁻⁶ cm/s; Papp A→B at 5 µM [4]: 21 ×10⁻⁶ cm/s
CCc1nc2ccccc2n1C1C[C@H]2CC[C@@H](C1)N2CC[C@H](NC(=O)C1CCS(=O)(=O)CC1)c1cccc(F)c1 (stereo not given in full)	9.52	Not Active	25 µL/min/mg	3 ×10⁻⁶ cm/s	
Cc1nc2ccccc2n1C1C[C@H]2CC[C@@H](C1)N2CC[C@H](NC(=O)c1ccc([S+](C)[O-])cc1)c1cccc(F)c1 (stereo not given in full)	7.40				
Cc1nc2ccncc2n1C1C[C@H]2CC[C@@H](C1)N2CC[C@H](NC(=O)c1ccc([S+](C)[O-])cc1)c1cccc(F)c1 (stereo not given in full)	8.70				
Cc1nc2ccc(F)cc2n1C1C[C@H]2CC[C@@H](C1)N2CC[C@H](NC(=O)c1ccc([S+](C)[O-])cc1)c1cccc(F)c1 (stereo not given in full)	9.00				
Cc1nc2cc(F)ccc2n1C1C[C@H]2CC[C@@H](C1)N2CC[C@H](NC(=O)c1ccc([S+](C)[O-])cc1)c1cccc(F)c1 (stereo not given in full)	7.44				
Cc1nc2ccncc2n1C1C[C@H]2CC[C@@H](C1)N2CC[C@H](NC(=O)c1ccc(S(C)(=O)=O)cc1)c1cccc(F)c1 (stereo not given in full)	9.00				
Cc1nc2cc(F)ccc2n1C1C[C@H]2CC[C@@H](C1)N2CC[C@H](NC(=O)c1ccc(S(C)(=O)=O)cc1)c1cccc(F)c1 (stereo not given in full)	8.10				
Cc1nc2cc(F)ccc2n1C1C[C@H]2CC[C@@H](C1)N2CC[C@H](NC(=O)c1cc[n+]([O-])cc1)c1cccc(F)c1 (stereo not given in full)	10.00				
CCc1nc2ccccc2n1C1C[C@H]2CC[C@@H](C1)N2CC[C@H](NC(=O)c1cc[n+]([O-])cc1)c1cccc(F)c1 (stereo not given in full)	7.62				
Cc1nc2ccc(F)cc2n1C1C[C@H]2CC[C@@H](C1)N2CC[C@H](NC(=O)c1ccc[n+]([O-])c1)c1cccc(F)c1 (stereo not given in full)	9.30				
Cc1nc2cc(F)ccc2n1C1C[C@H]2CC[C@@H](C1)N2CC[C@H](NC(=O)c1ccc[n+]([O-])c1)c1cccc(F)c1 (stereo not given in full)	9.00				
Cc1nc2ccncc2n1C1C[C@H]2CC[C@@H](C1)N2CC[C@H](NC(=O)C1CCS(=O)(=O)CC1)c1cccc(F)c1 (stereo not given in full)	9.70	Not Active	< 8 µL/min/mg	1 ×10⁻⁶ cm/s	
Cc1nc2ccncc2n1C1C[C@H]2CC[C@@H](C1)N2CC[C@H](NC(=O)c1cc[n+]([O-])cc1)c1cccc(F)c1 (stereo not given in full)	8.40				
Cc1nc2ccccc2n1C1C[C@H]2CC[C@@H](C1)N2CC[C@H](NC(=O)C1CCSCC1)c1cccc(F)c1 (stereo not given in full)	9.70		> 320 µL/min/mg	29 ×10⁻⁶ cm/s	pIC50 [9]: 6.13; logD [7]: 3.7; clearance [10]: 60 mL/min/kg; CL free [11]: 2431 mL/min/kg; Vd [12]: 2 L/kg; half-life [13]: 0.8 h; bioavailability [14]: 1%; Fa [8]: 9%; AUC [15]: 270 ng·h/mL; AUC [16]: 10 ng·h/mL; fAUC [17]: 6.7 ng·h/mL; fAUC [18]: 0.25 ng·h/mL; microsomal CLint [19]: > 510 µL/min/mg; Vdu [20]: 81 L/kg
Cc1nc2ccccc2n1C1C[C@H]2CC[C@@H](C1)N2CC[C@H](NC(=O)[C@H]1CC[S@@+]([O-])CC1)c1cccc(F)c1 (stereo not given in full)			36 µL/min/mg	1 ×10⁻⁶ cm/s	Papp A→B at 5 µM [2]: 2 ×10⁻⁶ cm/s; Papp A→B at 5 µM [4]: 20 ×10⁻⁶ cm/s; AUC [16]: 11 ng·h/mL; fAUC [18]: 1.7 ng·h/mL
Cc1nc2ccccc2n1C1C[C@H]2CC[C@@H](C1)N2CC[C@H](NC(=O)[C@H]1CC[S@+]([O-])CC1)c1cccc(F)c1 (stereo not given in full)			111 µL/min/mg	1 ×10⁻⁶ cm/s	AUC [16]: 2 ng·h/mL; fAUC [18]: 0.3 ng·h/mL
Cc1nc2ccccc2n1C1C[C@H]2CC[C@@H](C1)N2CC[C@H](NC(=O)C1CC[S+]([O-])CC1)c1cccc(F)c1 (stereo not given in full)	9.70	Not Active	38 µL/min/mg	0.8 ×10⁻⁶ cm/s	pIC50 [9]: < 5.00; logD [7]: 2.3; clearance [21]: 104 mL/min/kg; Vd [22]: 23 L/kg; half-life [23]: 2.6 h; bioavailability [24]: < 1%
Cc1nc2ccccc2n1C1C[C@H]2CC[C@@H](C1)N2CC[C@H](NC(=O)C1CCS(=O)(=O)CC1)c1cccc(F)c1 (stereo not given in full)	9.70	Not Active	23 µL/min/mg	4 ×10⁻⁶ cm/s	Papp A→B at 5 µM [2]: < 1 ×10⁻⁶ cm/s; Papp A→B at 5 µM [4]: 20 ×10⁻⁶ cm/s; AUC [16]: < 1 ng·h/mL; fAUC [18]: < 0.1 ng·h/mL
CC[S+]([O-])CC(=O)N[C@@H](CCN1[C@@H]2CC[C@H]1CC(n1c(C)nc3ccccc31)C2)c1cccc(F)c1 (stereo not given in full)	< 7.00				
Cc1nc2ccccc2n1C1C[C@H]2CC[C@@H](C1)N2CC[C@H](NC(=O)c1cc[n+]([O-])cc1)c1cccc(F)c1 (stereo not given in full)	8.40				
Cc1nc2ccccc2n1C1C[C@H]2CC[C@@H](C1)N2CC[C@H](NC(=O)c1ccc[n+]([O-])c1)c1cccc(F)c1 (stereo not given in full)	8.30				
Cc1nc2ccccc2n1C1C[C@H]2CC[C@@H](C1)N2CC[C@H](NC(=O)c1cccc[n+]1[O-])c1cccc(F)c1 (stereo not given in full)	< 7.00				
Cc1nc2cnccc2n1C1C[C@H]2CC[C@@H](C1)N2CC[C@H](NC(=O)C1CC[S+]([O-])CC1)c1cccc(F)c1 (stereo not given in full)	8.40				
Cc1nc2ccncc2n1C1C[C@H]2CC[C@@H](C1)N2CCC(NC(=O)C1CC[S+]([O-])CC1)c1cccc(F)c1 (stereo not given in full)	9.00	Not Active	50 µL/min/mg		Papp A→B at 5 µM [2]: 2 ×10⁻⁶ cm/s; Papp A→B at 5 µM [4]: 2 ×10⁻⁶ cm/s
